This note sets out measurements from publication PMC9785231, “Synthesis and Pharmacological Evaluation of Enantiopure N-Substituted Ortho-c Oxide-Bridged 5-Phenylmorphans” (Molecules, 2022).

One data set addresses T1, δ-opioid receptor (DOR) (Rattus norvegicus, UniProt P33533).
T1 construct: All assay tubes contained 100 μL homogenate suspension; from tissue; host or cells: whole rat brain excluding cerebellum, membrane homogenate
The data set is described as follows: Opioid receptor binding, DOR ([3H]DADLE), rat brain homogenate. Particulars: for DOR Binding, activity in exploratory binding assays: 100 nM concentration, displacement of radioligand.

A further data set deals with T2, μ-opioid receptor (MOR) (Rattus norvegicus, UniProt P33535).
T2 construct: All assay tubes contained 100 μL homogenate suspension; from tissue; host or cells: whole rat brain excluding cerebellum, membrane homogenate
The data set is described as follows: Opioid receptor binding, MOR ([3H]DAMGO), rat brain homogenate. Particulars: for MOR Binding, activity in exploratory binding assays: 100 nM concentration, displacement of radioligand; for Ki: [3H]DAMGO, whole rat brains excluding cerebellum, read-out: MOR Binding (Ki ± SEM).

The target of another data set is T3, κ-opioid receptor (KOR) (Rattus norvegicus, UniProt P34975).
T3 construct: All assay tubes contained 100 μL homogenate suspension; from tissue; host or cells: whole rat brain excluding cerebellum, membrane homogenate
Kind of data set: Opioid receptor binding, KOR ([3H]U69,593), rat brain homogenate. Particulars: for KOR Binding, activity in exploratory binding assays: 100 nM concentration, displacement of radioligand; for Ki: [3H]U69,593, whole rat brains excluding cerebellum, read-out: KOR Binding (Ki ± SEM).

Structures can show the parent of a compound that is named as a salt.

T1 sequence (P33533 whole entry): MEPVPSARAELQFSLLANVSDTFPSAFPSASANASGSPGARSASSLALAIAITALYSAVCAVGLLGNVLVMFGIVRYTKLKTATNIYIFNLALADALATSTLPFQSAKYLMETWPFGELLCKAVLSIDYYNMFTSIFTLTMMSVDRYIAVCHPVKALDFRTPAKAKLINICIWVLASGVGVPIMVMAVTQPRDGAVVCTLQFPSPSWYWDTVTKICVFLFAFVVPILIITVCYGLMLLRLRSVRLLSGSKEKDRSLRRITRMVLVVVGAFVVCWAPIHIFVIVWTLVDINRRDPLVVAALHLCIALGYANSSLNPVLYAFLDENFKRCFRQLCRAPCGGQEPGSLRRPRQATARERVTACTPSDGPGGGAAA
T2 sequence (P33535 whole entry): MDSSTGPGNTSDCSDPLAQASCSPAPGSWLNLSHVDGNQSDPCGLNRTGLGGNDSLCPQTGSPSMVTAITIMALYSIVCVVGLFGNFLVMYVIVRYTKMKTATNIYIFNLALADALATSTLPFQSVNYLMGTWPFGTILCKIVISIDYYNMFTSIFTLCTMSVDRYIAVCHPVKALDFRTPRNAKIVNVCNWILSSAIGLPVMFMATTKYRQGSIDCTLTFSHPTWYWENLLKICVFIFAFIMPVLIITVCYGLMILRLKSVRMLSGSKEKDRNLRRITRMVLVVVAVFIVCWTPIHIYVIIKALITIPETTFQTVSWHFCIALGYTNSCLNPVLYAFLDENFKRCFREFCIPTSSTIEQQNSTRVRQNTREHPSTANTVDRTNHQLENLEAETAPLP
T3 sequence (P34975 whole entry): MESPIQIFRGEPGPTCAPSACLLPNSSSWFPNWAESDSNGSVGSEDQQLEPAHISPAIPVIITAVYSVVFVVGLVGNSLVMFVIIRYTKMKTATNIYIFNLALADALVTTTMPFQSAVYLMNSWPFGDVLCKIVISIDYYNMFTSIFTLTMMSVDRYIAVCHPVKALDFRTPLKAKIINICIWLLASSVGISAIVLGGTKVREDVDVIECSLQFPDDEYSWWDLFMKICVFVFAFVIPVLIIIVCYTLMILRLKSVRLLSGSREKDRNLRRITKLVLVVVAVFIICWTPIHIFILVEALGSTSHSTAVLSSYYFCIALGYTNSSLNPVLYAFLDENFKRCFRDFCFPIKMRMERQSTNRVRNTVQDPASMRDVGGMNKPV

For orientation: melting point means the temperature, or range, at which the solid turns liquid. In the case of `Oc1cccc2c1O[C@@H]1CN(C[C@@H]3C[C@@H]3c3ccccc3)[C@@H]3CCC[C@]21C3` (as salt: HBr) [(-)-19, (3R,6aS,11aS)-2-(((1R,2S)-2-phenylcyclopropyl)methyl)-1,3,4,5,6,11a-hexahydro-2H-3,6a-methanobenzofuro[2,3-c]azocin-10-ol], the melting point lay within 193.3 to 198.3 °C.

Molecule `Oc1cccc2c1O[C@@H]1CN(C[C@H]3C[C@@H]3c3ccccc3)[C@@H]3CCC[C@]21C3` (as salt: HCl) [(+)-16, (3R,6aS,11aS)-2-(((1S,2S)-2-Phenylcyclopropyl)methyl)-1,3,4,5,6,11a-hexahydro-2H-3,6a-methanobenzofuro[2,3-c]azocin-10-ol] had a melting point of 246.6 to 251.6 °C.

Molecule `Oc1cccc2c1O[C@H]1CN(C[C@H]3C[C@@H]3c3ccccc3)[C@H]3CCC[C@@]21C3` (as salt: HCl) [(+)-17, (3S,6aR,11aR)-2-(((1S,2S)-2-Phenylcyclopropyl)methyl)-1,3,4,5,6,11a-hexahydro-2H-3,6a-methanobenzofuro[2,3-c]azocin-10-ol] had a melting point of 187.2 to 192.2 °C.

Molecule `Oc1cccc2c1O[C@@H]1CN(C[C@H]3C[C@H]3c3ccccc3)[C@@H]3CCC[C@]21C3` (as salt: HCl) [(+)-18, (3R,6aS,11aS)-2-(((1S,2R)-2-Phenylcyclopropyl)methyl)-1,3,4,5,6,11a-hexahydro-2H-3,6a-methanobenzofuro[2,3-c]azocin-10-ol] gave a melting point of 204.4 to 208.5 °C.

As for `Oc1cccc2c1O[C@H]1CN(C[C@H]3C[C@H]3c3ccccc3)[C@H]3CCC[C@@]21C3` (as salt: HCl) [(+)-19, (3S,6aR,11aR)-2-(((1S,2R)-2-Phenylcyclopropyl)methyl)-1,3,4,5,6,11a-hexahydro-2H-3,6a-methanobenzofuro[2,3-c]azocin-10-ol], the melting point is 183.1 to 187.7 °C.

For `Oc1cccc2c1O[C@H]1CN(C[C@@H]3C[C@H]3c3ccccc3)[C@H]3CCC[C@@]21C3` (as salt: HCl) [(-)-16, (3S,6aR,11aR)-2-(((1R,2R)-2-Phenylcyclopropyl)methyl)-1,3,4,5,6,11a-hexahydro-2H-3,6a-methanobenzofuro[2,3-c]azocin-10-ol], the melting point was 252.7 to 256.5 °C.

For the molecule `Oc1cccc2c1O[C@@H]1CN(C[C@@H]3C[C@H]3c3ccccc3)[C@@H]3CCC[C@]21C3` (as salt: HCl) [(-)-17, (3R,6aS,11aS)-2-(((1R,2R)-2-Phenylcyclopropyl)methyl)-1,3,4,5,6,11a-hexahydro-2H-3,6a-methanobenzofuro[2,3-c]azocin-10-ol], the melting point lay within 208.2 to 213.2 °C.

On to `Oc1cccc2c1O[C@H]1CN(C[C@@H]3C[C@@H]3c3ccccc3)[C@H]3CCC[C@@]21C3` (as salt: HCl) [(-)-18, (3S,6aR,11aR)-2-(((1R,2S)-2-Phenylcyclopropyl)methyl)-1,3,4,5,6,11a-hexahydro-2H-3,6a-methanobenzofuro[2,3-c]azocin-10-ol], for which the melting point was in the range of 193.9 to 198.5 °C.

With `Oc1cccc2c1O[C@@H]1CN(C[C@H]3C[C@@H]3c3ccccc3)[C@@H]3CCC[C@]21C3` [(+)-16, (3R,6aS,11aS)-2-(((1S,2S)-2-Phenylcyclopropyl)methyl)-1,3,4,5,6,11a-hexahydro-2H-3,6a-methanobenzofuro[2,3-c]azocin-10-ol], the “DOR Binding, activity in exploratory binding assays” value (“DOR Binding, activity” for short) on δ-opioid receptor (DOR) was “NT (NT = not tested—inactive (<50% activity at 100 nM concentration in exploratory binding assays (displaced less than half of radioligand))”. The “MOR Binding, activity in exploratory binding assays” value (“MOR Binding, activity” below) at μ-opioid receptor (MOR) was “NT (NT = not tested—inactive (<50% activity at 100 nM concentration in exploratory binding assays (displaced less than half of radioligand))”. For the same molecule, the “KOR Binding, activity in exploratory binding assays” value (“KOR Binding, activity” for short) on κ-opioid receptor (KOR) was “NT (NT = not tested—inactive (<50% activity at 100 nM concentration in exploratory binding assays (displaced less than half of radioligand))”.

Take `Oc1cccc2c1O[C@@H]1CN(C[C@H]3C[C@H]3c3ccccc3)[C@@H]3CCC[C@]21C3` [(+)-18, (3R,6aS,11aS)-2-(((1S,2R)-2-Phenylcyclopropyl)methyl)-1,3,4,5,6,11a-hexahydro-2H-3,6a-methanobenzofuro[2,3-c]azocin-10-ol]: the “DOR Binding, activity” value on δ-opioid receptor (DOR) was “NT (NT = not tested—inactive (<50% activity at 100 nM concentration in exploratory binding assays (displaced less than half of radioligand))”. In addition, the “MOR Binding, activity” value at μ-opioid receptor (MOR) was “NT (NT = not tested—inactive (<50% activity at 100 nM concentration in exploratory binding assays (displaced less than half of radioligand))”. The “KOR Binding, activity” value at κ-opioid receptor (KOR) was “NT (NT = not tested—inactive (<50% activity at 100 nM concentration in exploratory binding assays (displaced less than half of radioligand))”.

Broadly, the Ki is the equilibrium dissociation constant of an inhibitor or competing ligand from its target. On to `Oc1cccc2c1O[C@H]1CN(C[C@H]3C[C@H]3c3ccccc3)[C@H]3CCC[C@@]21C3` [(+)-19, (3S,6aR,11aR)-2-(((1S,2R)-2-Phenylcyclopropyl)methyl)-1,3,4,5,6,11a-hexahydro-2H-3,6a-methanobenzofuro[2,3-c]azocin-10-ol], for which, on δ-opioid receptor (DOR), the “DOR Binding, activity” value is “NT (NT = not tested—inactive (<50% activity at 100 nM concentration in exploratory binding assays (displaced less than half of radioligand))”. In addition, the inhibitory constant (Ki) at μ-opioid receptor (MOR) came out at 52.4 ± 5.1 nM; at κ-opioid receptor (KOR) it was 67.3 ± 7.9 nM.

For `Oc1cccc2c1O[C@H]1CN(C[C@@H]3C[C@H]3c3ccccc3)[C@H]3CCC[C@@]21C3` [(-)-16, (3S,6aR,11aR)-2-(((1R,2R)-2-Phenylcyclopropyl)methyl)-1,3,4,5,6,11a-hexahydro-2H-3,6a-methanobenzofuro[2,3-c]azocin-10-ol], the “DOR Binding, activity” value on δ-opioid receptor (DOR) is “NT (NT = not tested—inactive (<50% activity at 100 nM concentration in exploratory binding assays (displaced less than half of radioligand))”. The inhibition constant (Ki) at μ-opioid receptor (MOR) is 109 ± 5.5 nM. Besides, the “KOR Binding, activity” value on κ-opioid receptor (KOR) is “NT (NT = not tested—inactive (<50% activity at 100 nM concentration in exploratory binding assays (displaced less than half of radioligand))”.

For the molecule `Oc1cccc2c1O[C@@H]1CN(C[C@@H]3C[C@H]3c3ccccc3)[C@@H]3CCC[C@]21C3` [(-)-17, (3R,6aS,11aS)-2-(((1R,2R)-2-Phenylcyclopropyl)methyl)-1,3,4,5,6,11a-hexahydro-2H-3,6a-methanobenzofuro[2,3-c]azocin-10-ol], the “DOR Binding, activity” value at δ-opioid receptor (DOR) was “NT (NT = not tested—inactive (<50% activity at 100 nM concentration in exploratory binding assays (displaced less than half of radioligand))”. Besides, the “MOR Binding, activity” value at μ-opioid receptor (MOR) is “NT (NT = not tested—inactive (<50% activity at 100 nM concentration in exploratory binding assays (displaced less than half of radioligand))”. Moreover, the “KOR Binding, activity” value at κ-opioid receptor (KOR) is “NT (NT = not tested—inactive (<50% activity at 100 nM concentration in exploratory binding assays (displaced less than half of radioligand))”.

For `Oc1cccc2c1O[C@H]1CN(C[C@@H]3C[C@@H]3c3ccccc3)[C@H]3CCC[C@@]21C3` [(-)-18, (3S,6aR,11aR)-2-(((1R,2S)-2-Phenylcyclopropyl)methyl)-1,3,4,5,6,11a-hexahydro-2H-3,6a-methanobenzofuro[2,3-c]azocin-10-ol], the inhibition constant (Ki) came out at 89 ± 13.4 nM on δ-opioid receptor (DOR) ([3H]DADLE, whole rat brains excluding cerebellum, read-out: DOR Binding (Ki ± SEM)) and 109 ± 16 nM at κ-opioid receptor (KOR).
